{"source": "patent US20250120942A1", "about": "“BRAIN FUNCTION IMPROVING AGENT” (OSAKA UNIVERSITY, priority 2021, published 2025)", "format_in_all_cases": "in vivo, ddY mouse", "key": {"[1]": {"test_system": "mouse reared in long-term isolation", "assay": "Novel object recognition test in psychiatric disorder model mouse reared in long-term isolation, single oral dose (Test Example 3)", "settings": "tested 24 hours after administration; for exploratory time of the novel object versus Vehicle group: FIG. 3(A)", "protocol": "The action of ameliorating the lowering of the object cognitive function was examined by orally administering the compound A to the mouse reared in long-term isolation. […] In this test, the mouse reared in long-term isolation under the following condition was used as the psychiatric disorder model mouse.\n3-weeks-old male ddY mice were purchased from Japan SLC, Inc. The mice were reared in the rearing chamber provided with air conditioner (Conditions: the temperature was 22° C.±1° C., the relative humidity was 50±10%, and the irradiation time was 12 hours (8:00 to 20:00)). The feeding method was that the commercially available MF powdery feed (manufactured by Oriental Yeast Co., ltd.) and tap water were taken freely.\n3-weeks-old male ddY mice (n=63) were separately reared in the gray opaque cage (24×17×12 cm) in which the mice could not see the surrounding of the cage for 6 weeks. […] The mice (n=20) collectively reared in a group of 5 mice in the transparent cage (24×17×12 cm) were used as a control group.\nFour days prior to the start of the experiment, long-term isolation and group-reared mice were individually acclimated to the test observation box for 10 minutes for three consecutive days. […]\n24 hours after the oral administration, the evaluation test for novel object cognitive function was carried out. One object of two objects put in the observation box was replaced with the novel object and the time how long the mouse explored the novel object was measured in the test time of 5 minutes. The object cognitive function of the mouse was evaluated by Discrimination index (%) calculated using the following formula. […]\nFrom the results obtained, the mean (Mean) and the standard error (SEM) were calculated. The significant difference was assessed between the administration group and the control group by using Student's t-test as a method of the statistical processing of the exploratory time and by using Turkey-Kramer's test as a method of the statistical processing of Discrimination index. […]"}, "[2]": {"test_system": "mouse reared in long-term isolation", "assay": "Novel object recognition test after long-term administration in feed during isolated rearing (Test Example 4)", "settings": "MF powdery feed containing 7 mg/100 g for 5 weeks of isolation; FIG. 4(A),(B)", "protocol": "The compound A was orally administered for a long time and the effect of preventing the onset of cognitive dysfunction caused by the long-term isolated rearing was examined.\n3-weeks-old male ddY mice were purchased from Japan SLC, Inc. The mice were reared in the rearing chamber provided with air conditioner (under the condition that the temperature was 22° C.±1° C., the relative humidity was 50±10%, and the irradiation time was 12 hours (8:00 to 20:00)). The feeding method was that the commercially available MF powdery feed (manufactured by Oriental Yeast Co., ltd.) and tap water were taken freely. […]\nAfter the long-term rearing of 5 weeks, the object cognitive function was evaluated by the same method as that described in Test Example 3 and the effect of preventing the onset of cognitive dysfunction by administering the compound A during the long-term rearing was examined.\nFrom the results obtained, the mean (Mean) and the standard error (SEM) were calculated. The significant difference of exploratory time in each group was assessed by using Student's t-test and the significant differences between the control group and Vehicle group and between the administration group of compound A and Vehicle group of Discrimination index were assessed by using Turkey-Kramer's test. […]"}, "[3]": {"test_system": "mouse reared in long-term isolation", "assay": "Forced swimming test in mouse reared in long-term isolation (Test Example 6)", "settings": "test 30 minutes after administration, 5 weeks isolation, FIG. 6", "protocol": "The psychiatric disorder model mouse which was reared in isolation for 5 weeks was orally administered with the compound A and 30 minutes after the administration subjected to the Forced swimming test. The effect of improving depressive symptoms was examined.\nThe 3-weeks old male ddY mouse which was reared in isolation for 5 weeks in the same manner as in Test Example 3 was used for the test.\nThe compound A was dissolved in 2.5% DMSO solution in advance. After long-term isolated rearing the mice were divided into 3 groups of 7 mice and the administration groups of the compound A (the administration group of 30 mg/kg, the administration group of 10 mg/kg) and Vehicle group (the administration group of 2.5% DMSO solution) were set and the oral administration was carried out.\nIn 30 minutes after the oral administration, the forced swimming test was carried out in the same manner as in Test Example 5. The immobility time was measured during the test of 6 minutes and the depressive symptoms of the mouse was evaluated.\nFrom the results obtained, the mean (Mean) and the standard error (SEM) were calculated. The significant difference was assessed between the compound A administration group and the Vehicle group by using Dunnett's test. The level of significance was set to *P<0.05. The vertical axis of the graph in FIG. 6 represents the immobility time during the test."}}}
{"smiles": "O=C1CC[C@H](Cc2cc(O)cc(O)c2)O1", "note": "[compound A, (R)-5-(3,5-dihydroxyphenyl)-γ-valerolactone]", "values": [{"measurement": "exploratory time of the novel object versus Vehicle group", "setting": "[1]; oral 10 mg/kg", "value": "significantly increased"}, {"measurement": "exploratory time of the novel object versus Vehicle group", "setting": "[1]; oral 30 mg/kg", "value": "significantly increased"}, {"measurement": "Discrimination index", "setting": "[1]; oral 30 mg/kg, FIG. 3(B)", "value": "equal to the score obtained in the group of the mice reared in a group"}, {"measurement": "onset of cognitive dysfunction caused by long-term isolated rearing stress (exploratory time and Discrimination index)", "setting": "[2]", "value": "significantly inhibited"}, {"measurement": "immobility time in forced swimming test versus vehicle group", "setting": "[3]; oral 10 mg/kg", "value": "significantly reduced"}, {"measurement": "immobility time in forced swimming test versus vehicle group", "setting": "[3]; oral 30 mg/kg", "value": "significantly reduced"}]}
